According to patent publication US20250381110A1, “SKIN CARE COMPOSITION AND METHOD OF USING THE SAME” (THE PROCTER & GAMBLE COMPANY, priority 2024, published 2025):
Read-outs that look alike come from different tables or passages of the source.

Test system: p62-dependent mitophagy
Experiment: Luciferase-p62 assay (Fluc-p62 clearance) in mouse embryonic fibroblasts
Assay type: cell-based
Protocol: To identify p62-dependent materials which increase mitophagy, a Luciferase-p62 Assay was established. This method provides an approach to measure the ability of a material to modulate p62-dependent mitophagy by using an inducible firefly luciferase-p62 (Fluc-p62) reporter cell system. In this assay, p62 levels are driven by doxycycline treatment. After levels increased, expression of Fluc-p62 is turned off by removal of doxycycline, materials are then added and assessed for how they affect clearance of Fluc-p62 protein, which is proportionate to cellular mitophagy rates (Kelly et al.). The negative control is doxycycline induced Luc-p62 in the absence of compound or bioactive material treatment and in the presence of vehicle (DMSO).
Test materials including bioactive materials were screened in mouse embryonic fibroblasts (MEFs, Harada et al.) expressing the TET-inducible p62-fluc construct as previously described (Brown et al.). […] Gibson assembly was used to insert firefly luciferase (Fluc) and p62 into the pCW57.1 backbone. Fluc, p62, and pCW57.1 were polymerase chain reaction (PCR) amplified using pfu polymerase (Life technologies) and Gibson assembly primers with 20 base pair (bp) overhangs. PCR products were separated by agarose gel electrophoreses, and fragments excised and purified before use in DNA assembly reaction with NEBuilder HiFi DNA Assembly kit (New England Biolabs). After the assembly, the reaction mix was transformed into NEB3040 Stable Competent Escherichia coli (New England Biolabs). After 24 hours growth at 31 degrees Celsius the plasmid was extracted using QIAprep Spin Miniprep kit (Qiagen). The plasmid was sequenced to confirm correct insertion of Fluc-p62. To generate MEFs stably expressing doxycycline inducible Fluc-p62, HEK293FT cells were transfected with Fluc-p62-pCW57.1 and the ViraPower Packaging Mix (Invitrogen) to produce lentivirus. MEFs were transduced with the obtained lentiviral stock following followed by selection with 1 microgram per milliliter puromycin.Fluc-p62expressing MEFs were maintained in DMEM supplemented with 10 percent fetal bovine serum (FBS), 100 units per milliliter penicillin/streptomycin, and 2 millimolar L-glutamine in a humidified atmosphere containing 5 percent carbon dioxide at 37 degrees Celsius. Cells were plated into white 96 well plates (2,000 cells per well with 100 microliters media) and allowed to settle for 24 hours. […] Subsequently, cells were treated with test materials for 48 hours in normal growth medium and analysed using ONE-Glo™+Tox Luciferase Reporter and Cell Viability Assay (Promega) by following the manufacturer's protocol.
Test compositions and control compositions were prepared as described above in the Luciferase-p62 assay (Method 3) and tested accordingly. The compounds used in this example, as examples of bioactive materials, were from the APExBIO DiscoveryProbe™ Natural Product Library Plus (Houston, TX) and evaluated at equivalent concentrations (10 μM).
Data are additionally calculated as percentage of activity relative to rapamycin, a benchmark control compound tested in the same experiment.

[1] = Luciferase-p62 assay, mouse embryonic fibroblasts (MEFs), compounds at 10 μM
[2] = percentage of Luciferase-p62 clearance relative to baseline (mean luminescence in the absence of doxycycline induction), MEFs, 10 μM
[3] = percentage of activity relative to rapamycin tested in the same experiment at the same concentration, MEFs, 10 μM

**Q.** `C[C@@H]1CC[C@@]2(OC1)O[C@H]1C[C@H]3[C@@H]4CC=C5C[C@@H](O)CC[C@]5(C)[C@H]4CC[C@]3(C)[C@H]1[C@@H]2C` [Diosgenin] was tested. Which “Mean Luminescence” value [1] did it give?
**A.** 903.89

**Q.** And the “% Activity over baseline” value [2]?
**A.** 44.14%

**Q.** And the “% Activity relative to Rapamycin” value [3]?
**A.** 79.53%

**Q.** What does the source list for `Cl.NCCc1ccc(O)c(O)c1` [Dopamine HCl]?
**A.** Mean Luminescence: 995.96; % Activity over baseline (10 µM): 38.45%; % Activity relative to Rapamycin (10 µM): 69.28%

**Q.** With `CCCCc1oc2ccc(NS(C)(=O)=O)cc2c1C(=O)c1ccc(OCCCN(CCCC)CCCC)cc1` [Dronedarone] as the compound, how does the “Mean Luminescence” value [1] read?
**A.** 550.43

**Q.** And the “% Activity over baseline” value [2]?
**A.** 65.98%

**Q.** What about the “% Activity relative to Rapamycin” value [3] of the same compound?
**A.** 118.89%

**Q.** For `Clc1ccc(COC(Cn2ccnc2)c2ccc(Cl)cc2Cl)cc1` (stereo not drawn) [Econazole nitrate], which “Mean Luminescence” value [1] is on record?
**A.** 359.76

**Q.** And the “% Activity over baseline” value [2]?
**A.** 77.77%

**Q.** What about the “% Activity relative to Rapamycin” value [3] of the same compound?
**A.** 140.12%

**Q.** Which results are given for `O=C1C[C@@H](c2ccc(O)c(O)c2)Oc2cc(O)cc(O)c21` [Eriodictyol]?
**A.** Mean Luminescence [1]: 852.50; % Activity over baseline [2]: 47.31%; % Activity relative to Rapamycin [3]: 85.25%

**Q.** Which “Mean Luminescence” value [1] does the source give for `OC[C@@H](O)[C@@H](O)CO` [Erythritol] here?
**A.** 696.09

**Q.** What about the “% Activity over baseline” value [2] of the same compound?
**A.** 56.98%

**Q.** What about the “% Activity relative to Rapamycin” value [3] of the same compound?
**A.** 102.67%

**Q.** Which “Mean Luminescence” value [1] does the source give for `C[C@]12CC[C@@H]3c4ccc(OC(=O)c5ccccc5)cc4CC[C@H]3[C@@H]1CC[C@@H]2O` [Estradiol Benzoate] here?
**A.** 970.65

**Q.** And the “% Activity over baseline” value [2]?
**A.** 40.01%

**Q.** And the “% Activity relative to Rapamycin” value [3]?
**A.** 72.09%

**Q.** How did the “Mean Luminescence” value [1] turn out when `CCCCC(=O)O[C@H]1CC[C@H]2[C@@H]3CCc4cc(O)ccc4[C@H]3CC[C@]12C` [Estradiol valerate] was run?
**A.** 924.65

**Q.** And the “% Activity over baseline” value [2]?
**A.** 42.86%

**Q.** What about the “% Activity relative to Rapamycin” value [3] of the same compound?
**A.** 77.22%

**Q.** Which results are given for `C[C@]12CC[C@@H]3c4ccc(O)cc4CC[C@H]3[C@@H]1CC[C@@H]2O` [Estradiol]?
**A.** Mean Luminescence [1]: 768.64; % Activity over baseline [2]: 52.50%; % Activity relative to Rapamycin [3]: 94.59%

**Q.** `C[C@]12CC[C@@H]3c4ccc(O)cc4CC[C@H]3[C@@H]1C[C@@H](O)[C@@H]2O` [Estriol] was tested. Which “Mean Luminescence” value [1] did it give?
**A.** 784.74

**Q.** And the “% Activity over baseline” value [2]?
**A.** 51.50%

**Q.** And the “% Activity relative to Rapamycin” value [3]?
**A.** 92.80%

**Q.** What does the source list for `C[C@]12CC[C@@H]3c4ccc(O)cc4CC[C@H]3[C@@H]1CCC2=O` [Estrone]?
**A.** Mean Luminescence [1]: 670.65; % Activity over baseline [2]: 58.55%; % Activity relative to Rapamycin [3]: 105.50%

**Q.** How did the “Mean Luminescence” value [1] turn out when `C#C[C@]1(O)CC[C@H]2[C@@H]3CCC4=CC(=O)CC[C@]4(C)[C@H]3CC[C@@]21C` [Ethisterone] was run?
**A.** 996.32

**Q.** What about the “% Activity over baseline” value [2] of the same compound?
**A.** 38.43%

**Q.** What about the “% Activity relative to Rapamycin” value [3] of the same compound?
**A.** 69.24%

**Q.** Which “Mean Luminescence” value [1] does the source give for `CCc1c(Cl)c(O)c(Cl)c(O)c1C(=O)O[C@H]1[C@H](O)[C@H](OC)[C@H](OC/C2=C\C=C\C[C@H](O)/C(C)=C/[C@H](CC)[C@@H](O[C@@H]3OC(C)(C)[C@@H](OC(=O)C(C)C)[C@H](O)[C@@H]3O)/C(C)=C/C(C)=C/C[C@@H]([C@@H](C)O)OC2=O)O[C@@H]1C` [Fidaxomicin] here?
**A.** 262.87

**Q.** What about the “% Activity over baseline” value [2] of the same compound?
**A.** 83.75%

**Q.** What about the “% Activity relative to Rapamycin” value [3] of the same compound?
**A.** 150.90%

**Q.** For `O=c1[nH]cc(F)c(=O)[nH]1` [Fluorouracil (Adrucil)], which “Mean Luminescence” value [1] is on record?
**A.** 848.60

**Q.** And the “% Activity over baseline” value [2]?
**A.** 47.56%

**Q.** And the “% Activity relative to Rapamycin” value [3]?
**A.** 85.68%

**Q.** For `C=C[C@@]1(C)CC(=O)[C@]2(O)[C@@]3(C)[C@@H](O)CCC(C)(C)[C@@H]3[C@H](O)[C@H](OC(C)=O)[C@@]2(C)O1` [Forskolin], which “Mean Luminescence” value [1] is on record?
**A.** 911.32

**Q.** What about the “% Activity over baseline” value [2] of the same compound?
**A.** 43.68%

**Q.** And the “% Activity relative to Rapamycin” value [3]?
**A.** 78.70%

**Q.** What does the source list for `CNC[C@H](O)[C@@H](O)[C@H](O)[C@H](O)CO.CNC[C@H](O)[C@@H](O)[C@H](O)[C@H](O)CO.C[C@@H](O[C@H]1OCCN(Cc2nn(P(=O)(O)O)c(=O)[nH]2)[C@H]1c1ccc(F)cc1)c1cc(C(F)(F)F)cc(C(F)(F)F)c1` [Fosaprepitant dimeglumine salt]?
**A.** Mean Luminescence [1]: 756.54; % Activity over baseline [2]: 53.24%; % Activity relative to Rapamycin [3]: 95.93%

**Q.** `CC1=C2C(=O)O[C@@H](c3ccoc3)[C@]2(C)CCC1` [Fraxinellone] was tested. Which “Mean Luminescence” value [1] did it give?
**A.** 972.50

**Q.** And the “% Activity over baseline” value [2]?
**A.** 39.90%

**Q.** And the “% Activity relative to Rapamycin” value [3]?
**A.** 71.89%

**Q.** What does the source list for `O=C(O)c1cc(O)c(O)c(O)c1` [Gallic acid]?
**A.** Mean Luminescence [1]: 898.71; % Activity over baseline [2]: 44.46%; % Activity relative to Rapamycin [3]: 80.10%
